# According to article PMC9024361, “Pharmacokinetics, Tissue Distribution, Metabolism and Excretion of a Novel COX-2 Inhibitor, Vitacoxib, in Rats” (Frontiers in Veterinary Science, 2022):
# Entries after “also recorded” stand apart in the source; their conditions may differ. Read-outs that look alike come from different tables or passages of the source.
# Tests used:
# [1] = Metabolite identification in plasma, bile, urine and feces (UPLC Q-TOF MS); format: in vivo, Wistar rats; conditions: rats; for Source (matrices in which the metabolite was detected): single oral 18 mg/kg vitacoxib, Q-TOF MS; for Share of the metabolite in urinary and fecal excretion: urine and feces, not quantified
# Description: Six male rats were placed in their own metabolic cages and orally administered a single dose of 18 mg/kg dose of vitacoxib (tablets crushed and dissolved in 0.5% CMC-Na, 6 mg/ml). Bile, fecal, and urine samples were collected from each animal in metabolic cages at 0~8, 8~23, 23~32, 32~48, 48~58, 58~72, 72~82, 82~96, and 96~128 h after administration. The total weight of urine and feces was recorded after collection. Feces samples were diluted with 3 volumes (v/w) of triple-distilled water and homogenized, and the homogenate was stored at −20°C until further analysis.
# Chromatographic separation was performed using an ACQUITY UPLC^TM system (Waters Corporation, Milford, MA, USA). A Waters ACQUITY UPLC HSS T3 column (1.7 μm, 2.1 mm × 100 mm) was used for reversed-phase UPLC and the column temperature was maintained at 40°C. The flow rate of the mobile phase was 0.5 ml/min and the injection volume was 5 μl. Mobile phase A was 0.1% formic acid in water and mobile phase B was 0.1% formic acid in methanol. The column was eluted using a linear gradient (0 → 1 min, phase A 90%; 1 → 10 min, phase A 90% → 5%; 10 → 13.5 min, phase A 5% → 5%; and 13.5 → 15 min, phase A 5% → 90%).
# MS analysis was performed using a Xevo G2-S Q-TOF mass spectrometer. The eluent was not shunted but injected directly into the mass analysis system in the positive-ion mode. The source temperature was set at 120°C. The flow rate of the desolvation gas was 800 L/h at a temperature of 500°C. The capillary voltage was set at 3 kV with 35 V as the cone voltage. Methods to analyze different tissues and samples were developed and validated in our lab. Data were analyzed using Metabolynx^TM software (version 4.1), which could automatically identify metabolites by comparing treatment samples with the respective controls.
# [2] = Plasma pharmacokinetics after a single oral dose; format: in vivo; conditions: male, Wistar, rat, rats, single p.o. 18 mg/kg b.w., n = 5, plasma
# Description: (§1) Five male rats were administered a single dose of vitacoxib (18 mg/kg) obtained by crushing and dissolving vitacoxib tablets in 0.5% CMC-Na (6 mg/ml). Blood samples (0.3 ml) were collected via a cannula directly into heparinized tubes before drug administration and 5, 15, 30 min, and 1, 2, 3, 4, 6, 8, 10, 12, 24, 36, and 48 h after drug administration. The samples were centrifuged at 2,280 × g for 10 min as soon as possible and stored at −20°C until further analysis (within 21 days).
# Vitacoxib in plasma samples was analyzed using an established and validated UPLC-MS/MS (Waters Acquity UPLC and Water Quattro Premier, Waters Co., USA) method using a procedure previously described by our group ([18]). The lower limit of quantification was 0.5 ng/ml and the calibration range of the method was 0.5–1,000 ng/ml. Noncompartmental analysis was performed to determine the pharmacokinetic parameters, as appropriate, using WinNonlin^TM (version 6.4, Certara, Princeton NJ, USA) computational software.
# rats = test: Observation of adverse effects after a single oral dose; format: in vivo, Wistar rats; conditions: single oral dose 18 mg/kg BW
# Description: as §1
# [3] = Tissue distribution after a single oral dose; format: in vivo, Wistar rats; conditions: rats
# Description: Eighteen rats were administered a single oral dose (18 mg/kg BW) of vitacoxib (tablets crushed and dissolved in 0.5% CMC-Na, 6 mg/ml). Six rats were euthanized at each time point of 0.25, 6, and 24 h after dose administration. The brain, liver, heart, spleen, lungs, bladder, kidneys, gracilis muscle, gastrointestinal tract, large intestinal contents, small intestine, bone marrow, testes, epididymis, thymus gland, fat, and pancreas were collected and weighed. Each sample was diluted with 3 volumes (v/w) of triple-distilled water and homogenized, and the homogenate was stored at −20°C until further analysis. Vitacoxib in tissue samples was analyzed using UPLC-MS/MS by following a previously described procedure.
# [4] = Urinary and fecal excretion of unchanged drug; format: in vivo, Wistar rats; conditions: rats
# Description: Six male rats were placed in separate metabolic cages and administered a single oral dose of 18 mg/kg of vitacoxib (tablets were crushed and dissolved in 0.5% CMC-Na, 6 mg/ml). Urine and fecal samples were collected from each animal in metabolic cages at different time points at 2, 4, 6, 8, 10, 14, 24, 36, 48, 60, 72, 84, 96, 108, 120, 132, 144, 156, and 168 h after drug administration.
# (§2) Eight male rats with bile-duct cannulation were administered 18 mg/kg of vitacoxib (tablets crushed and dissolved in 0.5% CMC-Na, 6 mg/ml). Rats were housed in metabolism cages and bile samples were collected at 2, 4, 6, 8, 10, 14, 24, 36, 48, 60, and 72 h after drug administration. All samples were stored at −20°C until further analysis. […] Vitacoxib in urine, fecal, and bile samples was determined via validation UPLC-MS/MS using the procedure described for blood ([18]).
# [5] = Bile excretion of unchanged drug in bile-duct cannulated rats; format: in vivo, Wistar rats; conditions: single oral 18 mg/kg, 0~72 h
# Description: as §2
# SD rats = test system: SD rats; parameters: method as in PMID 28238853, PMID 29601910; conditions: repeated dietary administration, cited from earlier work
# rats and mice = test system: rats and mice; parameters: method as in PMID 30128300; conditions: cited from earlier work
# rabbits = test system: rabbits; parameters: method as in PMID 28959651; conditions: cited from earlier work
# guinea pigs = test system: guinea pigs; parameters: method as in PMID 28959651; conditions: cited from earlier work
# [6] = parameters: method as in PMID 30076623; conditions: horses, 0.1 mg/kg bw; cited from earlier work
# COX-2 [7] = test system: COX-2; parameters: method as in doi:10.11669/cpj.2013.20.011; conditions: dogs, preclinical trials; cited from earlier work
# COX-2 [8] = test system: COX-2; parameters: method as in doi:10.11669/cpj.2013.20.011; conditions: rats, preclinical trials; cited from earlier work
# Sprague Dawley (SD) rats = conditions: rat, in vivo; cited from earlier work
# [9] = test system: Institute of Cancer Research (ICR) mice; conditions: mouse, in vivo; cited from earlier work
# [10] = dog, in vivo, 2 mg/kg; cited from earlier work
smiles,measurement,setting,value
CS(=O)(=O)c1ccc(-n2cnc(Cl)c2-c2ccc(CO)cc2)nc1 [M1],Source (matrices in which the metabolite was detected),[1],"Plasma, bile, feces, and urine"
same,Share of the metabolite in urinary and fecal excretion,[1],minor amount of the dose
"Cc1ccc(-c2c(Cl)ncn2-c2ccc(S(C)(=O)=O)cn2)cc1 [vitacoxib, 2-(4-chloro-5-p-tolyl-1H-imidazol-1-yl)-5-(methylsulfonyl) pyridine]",Tmax,"[2]; plasma, 18 mg/kg",~5 h
same,AUC(0-inf),"[2]; 0 to infinity, read-out: AUCINF_obs",4930 ± 588 ng·h/mL
same,AUC(0-t),[2]; 0 to last point,4900 ± 604 ng·h/mL
same,k el,"[2]; noncompartmental, read-out: λz (elimination rate constant) (converted)",4.44e-05 s⁻¹
same,Cmax,[2]; read-out: Cmax (maximum plasma concentration),450 ± 96.2 ng/mL
same,MRT last,[2]; read-out: MRTlast (mean residence time),8.09 ± 1.72 h
same,half-life,[2]; read-out: T1/2λz (elimination half-life) (converted),4.25 ± 0.3 h
same,Adverse effects,rats,No obvious or serious adverse effects; also recorded: no adverse effects
same,Crossing of the intestinal barrier,[3]; single oral dose 18 mg/kg BW,could cross the intestinal barrier
same,Time by which vitacoxib was detected in most tissues,[3]; single oral dose 18 mg/kg BW,≤ 15 min
same,Concentration in most tissues by 24 h after administration,"[3]; single oral dose 18 mg/kg BW, 24 h",below the limit of detection
same,Presence in brain / crossing of blood-brain barrier,"[3]; single oral dose 18 mg/kg BW, 18 mg/kg",found in the brain; also recorded: cross the blood-brain barrier
same,Order of AUC(0~24h) values in different tissues,[3]; single oral gavage dose 18 mg/kg bw,gastric contents > large intestinal contents > small intestinal contents > stomach > large intestine > pancreas > liver > small intestine > fat > lungs > spleen > brain > plasma > testes > kidneys > spinal cord > thymus > bones > heart > spermatic > skeletal muscles > bladder
same,Cumulative excretion in feces in unaltered form,"[4]; single oral 18 mg/kg, 0~168 h",4.7334% ± 1.6645%
same,Cumulative excretion in urine in unaltered form,"[4]; single oral 18 mg/kg, 0~168 h",0.0135% ± 0.0053%
same,Dose recovered in the urine or feces as the parent drug,[4]; single oral dose,< 5%
same,Cumulative excretion in bile in unaltered form,[5],0.0261% ± 0.00627%
same,No-observed-adverse-effect-level (90 days),SD rats; 90 days,20 mg/kg
same,No-observed-adverse-effect-level (180 days),SD rats; 180 days,6 mg/kg BW/day
same,Mutagenicity,rats and mice,No mutagenicity or teratogenicity
same,Teratogenicity,rats and mice,No mutagenicity or teratogenicity
same,Skin irritation,rabbits,does not cause skin irritation
same,Skin sensitization,guinea pigs,does not cause skin irritation in rabbits or skin sensitization
same,T1/2λz,[6],7.39 ± 4.17 h
same,COX-2 inhibition (specificity),COX-2 [7],specifically inhibits COX-2
same,COX-2 inhibition (specificity),COX-2 [8],specifically inhibits COX-2
same,Oral LD50,Sprague Dawley (SD) rats,"> 5,000 mg/kg body weight (BW)"
same,Oral LD50,[9],"> 5,000 mg/kg body weight (BW)"
same,T1/2λz,[10],5. 87 ± 3. 37 h
"CS(=O)(=O)c1ccc(-n2cnc(Cl)c2-c2ccc(C(=O)O)cc2)nc1 [M2, 4-(4-chloro-1-(5-(methylsulfonyl)pyridin-2-yl)-1H-imidazol-5-yl) benzoic acid]",Source (matrices in which the metabolite was detected),[1],"Bile, feces, and urine"
same,Share of the metabolite in urinary and fecal excretion,[1]; listed as carboxylic acid derivative,major metabolite
same,Share of the metabolite in urinary and fecal excretion,[1]; listed as carboxylic acid metabolite,primary metabolite
